Assay results from patent publication US20200172530A1, “Small Molecule Sensitization of BAX Activation for Induction of Cell Death” (Dana-Farber Cancer Institute, Inc., priority 2017, published 2020).

Tests used:
[1] = molecular target: T1, recombinant, full length BAX (Homo sapiens, UniProt Q07812); test: Fluorescence polarization assay (direct and competitive); type: binding; conditions: FITC-peptide 25 nM, BAX 250 nM
T1 construct: made in house; host or cells: E. coli BL21 (DE3)
Description: FITC-peptide (25 nM) was incubated with a serial dilution of recombinant, full length BAX in binding buffer (20 mM Potassium phosphate, pH 6.2). For competitive FP, FITC-peptide (25 nM) was mixed with a fixed concentration of BAX (250 nM) and incubated with a serial dilution of acetylated peptide or a compound described herein. Fluorescence polarization was measured at equilibrium using a SpectraMax M5 microplate reader. Nonlinear regression analysis of dose-response curves was performed using Prism software 7 (GraphPad).

BAX = molecular target: T2, BAX (Homo sapiens, UniProt Q07812); test: Liposomal release assay (ANTS/DPX); type: biochemical
T2 construct: Recombinant, full-length BAX was expressed in BL21 (DE3) E. coli using the pTYB1 vector; made in house; host or cells: E. coli BL21 (DE3)
Description: Briefly, a lipid mixture containing a 48:28:10:10:4 molar ratio of phosphatidylcholine, phosphatidylethanolamine, phosphatidylinositol, dioleoyl phosphatidylserine, and tetraoleolyl cardiolipin (Avanti Polar Lipids) was generated in chloroform. Lipid films were formed by evaporation of solvent, initially under nitrogen gas and then by overnight vacuum, followed by storage at −80° C. under nitrogen. […] Liposomes were formed by 5 freeze/thaw cycles followed by extrusion through a 100 nm polycarbonate membrane and purified using a Sepharose CL-2B size exclusion column. […] ANTS/DPX release was monitored over time at room temperature in a spectrofluorometer (Tecan Infinite M1000) using an excitation wavelength of 355 nm, an emission wavelength of 540 nm, and a bandwidth of 20 nm. Maximal release was determined by the addition of Triton X-100 to a final concentration of 0.2% (v/v). Percent release was calculated according to Equation 1 shown below, where F is the observed release, and F0 and F100 are baseline and maximal fluorescence, respectively.
First, baseline fluorescence with liposomes and compound alone was read, followed by the addition of BAX to evaluate for direct activation; then, BIM SAHBA2 was added to this mixture and the effect of the combination monitored, and compared with the triggering activity of BIM SAHBA2 and BAX in the absence of compound.

Dynamic light scattering = type: physicochemical; conditions: 20 mM potassium phosphate buffer, pH 6.2
Description: Samples were measured at room temperature on a DynaPro-99 instrument with a 90° detector angle using a 10 second acquisition time per measurement. Compounds were diluted from a 100 mM stock in 20 mM potassium phosphate buffer, pH 6.2 with 1% DMSO final concentration.

[2] = NMR-based detection of small molecule aggregators; type: physicochemical; conditions: 20 mM potassium phosphate buffer, pH 6.2, 10% D2O
Description: To detect line broadening, standard ^1H-NMR spectra were acquired. T2 decay curves were generated by measuring the CPMG NMR spectra of the molecules, performed as described above. The number of echo cycles corresponds to the decay time. The intensity of the aromatic peaks at the indicated decay times were measured and normalized to a maximum intensity of 1 at the 10 ms decay time. The curves were fitted to a one phase decay model using Prism software (Graphpad). Excitation sculpting was used for solvent suppression. Samples for both analyses were prepared in 20 mM potassium phosphate buffer, pH 6.2, 10% (v/v) D2O. Results of these measurements are described in FIGS. 12-13.

T2 sequence (Q07812 whole entry): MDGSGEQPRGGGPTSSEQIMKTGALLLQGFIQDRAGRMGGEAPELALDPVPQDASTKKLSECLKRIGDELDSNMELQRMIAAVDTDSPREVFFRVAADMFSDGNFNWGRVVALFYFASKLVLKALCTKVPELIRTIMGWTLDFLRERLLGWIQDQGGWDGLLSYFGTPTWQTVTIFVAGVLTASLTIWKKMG
T1 sequence (Q07812 whole entry): as above

competition with FITC-BIM SAHBA2 for BAX interaction [1] | maximal BAX-mediated liposomal release (BAX; BIM SAHBA2 alone with BAX) | line broadening in 1H-NMR spectrum (aggregation) [2] | Molecule | direct BAX activation in liposomal release (BAX; single agent with BAX) | light scattering (aggregation in solution) (Dynamic light scattering) | T2 decay (aggregation) [2]
dose-responsively competed | 50% |  | BIM SAHBA2: stapled BIM BH3 helix (aa 145-164), Ac-EIWIAQELRXIGDXFNAYYA-CONH2, X=stapling amino acid; direct BAX activator positive control | induced time-responsive liposomal release |  | 
 |  |  | O=C1C(I)=CC(=C(c2cc(I)c(O)c(I)c2)c2ccccc2C(=O)O)C=C1I [I4PTH] |  | dose-dependent increase in light scattering | 
 |  |  | Nc1ccc(Nc2ccccc2)cc1 [4-ADPA] |  | dose-dependent increase in light scattering | rapid T2 decay
 |  | does not exhibit line broadening | Oc1ccc(Oc2ccccc2)cc1 [BIF-44] |  | does not aggregate in solution | does not exhibit rapid or dose dependent decrease in T2 decay
